Test results published in the NIST ThermoML archive (doi:10.1016/j.jct.2016.09.030).

Key:
[1] = refractive index (Na D-line) (dimensionless); xn = mol fraction of the nth substance listed; conditions: 100 kPa, Liquid, Standard Abbe refractometry, x2 = 0
[2] = xn = mol fraction of the nth substance listed; conditions: 100 kPa, Liquid, x2 = 0; for viscosity: Concentric cylinders viscometry; for mass density: Vibrating tube method
[3] = 100 kPa, Liquid; for viscosity: Concentric cylinders viscometry; for mass density: Vibrating tube method
[4] = refractive index (Na D-line) (dimensionless); conditions: 100 kPa, Liquid, Standard Abbe refractometry

CC(C)CO [2-methyl-1-propanol] + CCCCCCCC(=O)OCC
Conditions | mass density, [2] [kg/m3] | refractive index, [1] | viscosity, [2] [mPa·s]
288.15 K | 805.88 | 1.3978 | 4.829
293.15 K | 802.03 | 1.3958 | 4.052
298.15 K | 798.16 | 1.3937 | 3.431
303.15 K | 794.25 | 1.3916 | 2.923
308.15 K | 790.31 | 1.3895 | 2.505
313.15 K | 786.31 | 1.3874 | 2.161
318.15 K | 782.26 | 1.3853 | 1.875
323.15 K | 778.14 | 1.383 | 1.652

CC(C)CO [2-methyl-1-propanol] + CCOC(=O)CCC(=O)OCC
Conditions | mass density, [2] [kg/m3] | refractive index, [1] | viscosity, [2] [mPa·s]
288.15 K | 805.88 | 1.3978 | 4.829
293.15 K | 802.03 | 1.3958 | 4.052
298.15 K | 798.16 | 1.3937 | 3.431
303.15 K | 794.25 | 1.3916 | 2.923
308.15 K | 790.31 | 1.3895 | 2.505
313.15 K | 786.31 | 1.3874 | 2.161
318.15 K | 782.26 | 1.3853 | 1.875
323.15 K | 778.14 | 1.383 | 1.652

CC(C)CCO [3-methylbutan-1-ol] + CCCCCCCC(=O)OCC
Conditions | mass density, [2] [kg/m3] | refractive index, [1] | viscosity, [2] [mPa·s]
288.15 K | 812.29 | 1.4087 | 5.057
293.15 K | 808.58 | 1.4067 | 4.287
298.15 K | 804.84 | 1.4047 | 3.671
303.15 K | 801.09 | 1.4026 | 3.155
308.15 K | 797.31 | 1.4005 | 2.73
313.15 K | 793.51 | 1.3985 | 2.375
318.15 K | 789.67 | 1.3964 | 2.076
323.15 K | 785.79 | 1.3943 | 1.841

CC(C)CCO [3-methylbutan-1-ol] + CCOC(=O)CCC(=O)OCC
Conditions | mass density, [2] [kg/m3] | refractive index, [1] | viscosity, [2] [mPa·s]
288.15 K | 812.29 | 1.4087 | 5.057
293.15 K | 808.58 | 1.4067 | 4.287
298.15 K | 804.84 | 1.4047 | 3.671
303.15 K | 801.09 | 1.4026 | 3.155
308.15 K | 797.31 | 1.4005 | 2.73
313.15 K | 793.51 | 1.3985 | 2.375
318.15 K | 789.67 | 1.3964 | 2.076
323.15 K | 785.79 | 1.3943 | 1.841

CCCCCCCC(=O)OCC [ethyl octanoate]
Conditions | mass density, [3] [kg/m3] | refractive index, [4] | viscosity, [3] [mPa·s]
288.15 K | 870.88 | 1.4199 | 1.686
293.15 K | 866.58 | 1.4177 | 1.537
298.15 K | 862.28 | 1.4155 | 1.41
303.15 K | 857.98 | 1.4132 | 1.298
308.15 K | 853.68 | 1.411 | 1.2
313.15 K | 849.37 | 1.4088 | 1.118
318.15 K | 845.06 | 1.4066 | 1.035
323.15 K | 840.74 | 1.4044 | 0.9708
